row,SMILES,melting point
1,CC(C)(C)c1cc(CCc2ccccc2NC(=O)NC2CCCc3ccccc32)cc(C(C)(C)C)c1O (centres undefined),168 to 169 °C
2,CC(C)(C)OC(=O)NCCCCCNC1(c2ccccc2Cl)C(=O)Nc2ccc(Cl)cc21 (centres undefined),185 °C
3,CC(C)(C)c1nn(-c2c(Cl)cc(C(F)(F)F)cc2Cl)c(Br)c1[N+](=O)[O-],105 to 108 °C
4,CN(C)CCCNC(=O)c1cccc([N+](=O)[O-])c1Cl,122 to 125 °C
5,Cc1sc2c(c1C(=O)c1ccccc1)CCC2C(N)=O (centres undefined),165 to 168 °C
6,CC(=O)NC[C@H]1CN(c2ccc(-n3nccc3-c3ccc(F)cc3)c(F)c2)C(=O)O1,111 to 113 °C
7,COc1cc(CN/C=C2\C(=O)NC(=O)c3ccc(-c4ccc(Oc5ccccc5)cc4)cc32)cc(O)c1OC,240 to 241 °C
8,O=C1COc2ccc(NC(=O)C(=O)N3CCC(Cc4ccccc4)CC3)cc2N1,186 to 187 °C
9,Cc1cc(Oc2cccc(C(F)(F)F)c2)c(C)cc1N=CNC#N,138 to 140 °C
10,CCCCCCN(Cc1cccnc1)C(Nc1ccc(OC)cc1OC)=C1C(=O)OC(C)(C)OC1=O,154 to 155 °C
11,CCN(CC)C(=O)CCCC1CCN(Cc2cnc3c(C)c(NC(=O)c4ccc(-c5ccc(F)cc5)cc4)ccc3c2)CC1,145 to 146 °C
12,N#Cc1ccsc1N=Cc1ccc([N+](=O)[O-])s1,192 to 194 °C
13,C=CCCCCc1ccc(C(=O)O)cc1,79 to 82 °C
14,CCOC(=O)CCCNC(=O)c1nn(C2CCCCO2)cc1NC(=O)c1ccccn1 (centres undefined),114 to 115 °C
15,CCOC(=O)C1=CCCCC1S(=O)(=O)Nn1cccc1C (centres undefined),100 to 101 °C
16,O=c1[nH]nc2n1C=Cc1ccccc1C2c1ccccc1 (centres undefined),258 to 260 °C
17,Oc1ccc(-c2nn(CC3CCCCC3)c3c(C(F)(F)F)cccc23)c(O)c1,117 to 118 °C
18,OCCOc1ccc(-c2nc(-c3ccc(OCCO)cc3O)nc(-c3ccc(OCCO)cc3O)n2)cc1,169 °C
19,CC(C)Cn1c(CC(C)O)nc2c(N)nc3ccccc3c21 (centres undefined),196 to 198 °C
20,CC1=C(C(=O)OC(C)C)[C@@H](c2cccc(Cl)c2)NC(=O)N1C(N)=O,131 to 133 °C
21,CC1(C)C2CCC3(C)C(C2)C(=O)CCC13O (centres undefined),120 to 123 °C
22,Nc1sc(-c2cc(F)cc(F)c2)c(CN(C2CCCCC2)C2CCCCC2)c1C(=O)c1ccc(Cl)cc1,163 to 166 °C
23,O=C(O)c1cn(C2COC2)c2cc(F)c(F)cc2c1=O,255 to 256 °C
24,COc1cc2c(cc1OC)C(C)=[N+]([O-])C(c1ccccc1)N2 (centres undefined),178 to 182 °C
25,CS(=O)(=O)N(C(=O)c1cc(Oc2ccc(C(F)(F)F)cc2Cl)ccc1[N+](=O)[O-])C(=O)c1cc(Oc2ccc(C(F)(F)F)cc2Cl)ccc1[N+](=O)[O-],166 to 168 °C

row,SMILES,melting point
1,CC(=O)N(Cc1ccc(C(=O)O)cc1)c1ccc2c(c1)C(C)(C)CCC2(C)C,219 to 223 °C
2,O=C1OC(c2ccccc2)C2CCc3cc(O)ccc3N12 (centres undefined),216 °C
3,COc1cccc2c(=O)c3c(OCC4CS4)cc(OCC4CS4)cc3oc12 (centres undefined),240 °C
4,CCNc1cc(Cl)nc(C#N)c1N,150 °C
5,CN(C)c1ccc(-c2ccnc3c(C(=O)c4cccs4)cnn23)cc1NC(=O)c1ccncc1,151 to 153 °C
6,CCOC(=O)Nc1ccc(Cl)c(N)n1,66 to 70 °C
7,CC(=O)OCC1=C(C(=O)O)N2C(=O)C(NC(=O)Cn3ccnc3S(C)=O)C2SC1 (centres undefined),220 °C
8,CCOC(=O)c1nc2ccccc2nc1C,74 to 75 °C
9,COc1cc(Cl)c2c(=O)c(N3CCCCC3)coc2c1,122 to 125 °C
10,c1ccc(Oc2cnccc2N2CCNCC2)cc1,74 to 77 °C
11,Cc1cc(C)cc(C(=O)NC(C#N)n2cccn2)c1 (centres undefined),180 to 183 °C
12,O=C(O)c1cccc(-c2ccc3c(c2)N(Cc2ccc(Cl)cc2Cl)CC3)c1,175 to 176 °C
13,N#CC1C(c2ccccc2)N1C(=O)NC(=O)CCl (centres undefined),153 to 158 °C
14,COc1ccc(-c2nc3cccc(C(=O)NC4CC5CCCC(C4)N5C)c3o2)cc1 (centres undefined),160 to 162 °C
15,O=C(O)Cn1c(-c2ccc(F)cc2)nc2cccnc21,> 250 °C
16,CN(C)C(=O)Nc1ccc(OS(C)(=O)=O)c(Cl)c1,130 to 132 °C
17,CC(C)(C)NCC(=O)c1cccc2cc(O)c(O)cc12,140 to 144 °C
18,CC(C)(c1ccccc1)N1CCC(=O)C(c2ccccc2)C1=O (centres undefined),129 to 132 °C
19,COc1c(C)c(C)c(OC)c(CC=C(C)CO)c1C,85 to 86 °C
20,CCc1noc(NC(C)=O)c1Cl,113 to 114 °C
21,CCCCCCCCCCCCCCOc1ccc(C(=O)Cc2ccc([N+](=O)[O-])cc2)cc1,84 to 85 °C
22,Cc1ccc(S(=O)(=O)OC[C@H]2COc3cc(F)c4c(c3O2)CC(=O)N4)cc1,205 to 206 °C
23,COC(=O)c1cc(O)cc(OC)c1,85 to 86 °C
24,COc1cc(OC)c(C2=CCCCC2)c(OC)c1,127 °C
25,O=C(c1ccccc1)c1c[nH]nc1-c1cccc(Cl)c1,161 to 164 °C

row,SMILES,melting point
1,COc1cc2c(cc1F)C(c1ccccc1Cl)=NC1=C(C)NNC1=N2,217 to 218 °C
2,CC1CCN(c2c(-c3c(F)cc(F)cc3F)c(Cl)nc3nc(S(C)(=O)=O)nn23)CC1,206 °C
3,CS(=O)(=O)c1ccccc1S(=O)(=O)Nc1cccc2cc(C3=NCCS3)[nH]c12,211 to 212 °C
4,CN(Cc1ccc(NC(=O)C2=Cc3cc(-c4ccc5c(c4)OCO5)ccc3SCC2)cc1)C1CCOCC1,193 to 194 °C
5,CCC(CC)C(c1ccnn1-c1ccccc1)N(C)S(=O)(=O)c1ccc(Cl)cc1 (centres undefined),86.5 to 89 °C
6,CC(C)CCCNC1c2ccccc2C(=O)N1c1ccc2ccc(Cl)nc2n1 (centres undefined),131 °C
7,COC(=O)CCNC(=O)c1cc(Cl)c([N+](=O)[O-])cc1[N+](=O)[O-],139 to 141 °C
8,CCCCc1cn2ccccc2c1S(=O)(=O)c1ccc(OCCCBr)cc1,119 °C
9,OC1(C2CC2)CSC(=S)N1c1ccccn1 (centres undefined),95 °C
10,O=C(O)c1cc(OCc2ccsc2)c(-c2ccccc2)c([N+](=O)[O-])c1,184 to 186 °C
11,O=C(NCc1ccc(OC(F)(F)F)cc1)Nc1cccc2[nH]ccc12,177 °C
12,CC#CCOc1ccc(S(=O)(=O)C2(C(=O)O)CCCN(Cc3ccc(Cl)cc3)C2)cc1 (centres undefined),115 °C
13,CCCCCCCNC(=O)Nc1ccccc1C(=O)Nc1ccccn1,118 °C
14,Cn1ccc(C(=O)c2ccc(Cl)cc2)c1,48 to 50 °C
15,CC(C)N1C(=O)[C@@H](CCCC(=O)O)O[C@H](c2ccccc2Cl)c2cc(Cl)ccc21 (relative stereo),158 to 160 °C
16,COc1ccc(-c2nc(C(F)(F)F)cn2-c2ccc(C#N)cc2)cc1,146 to 148 °C
17,Nc1nc(N)c(N)c(OCc2ccccc2)n1,130 to 135 °C
18,O=C1N(CCCOCc2ccccc2)c2ccccc2C12COc1cc3c(cc12)CCO3 (centres undefined),112 to 113 °C
19,C=CCN(CC(=O)OC(C)(C)C)c1c(N)c(=O)c1=O,175 to 176 °C
20,COc1nc(C)nc(NC(=N)SC)n1,112 °C
21,CCOC(=O)CC1(CC)OCCc2c1[nH]c1ccccc21 (centres undefined),< 80 °C
22,N#Cc1cnn2c(-c3cccc(Cl)c3)ccnc12,238 to 240 °C
23,CN(C)[C@H]1CCC[C@H]1C(=O)O (relative stereo),82 to 84 °C
24,O=C(O)c1c(-c2ccccc2)c2ccccc2n1Cc1ccc(OCc2ccccc2)cc1,193 to 194 °C
25,COc1ccc(C(=O)Nc2ccc3ccc(Cl)nc3n2)cc1OC,196 °C

row,SMILES,melting point
1,COC(=O)C1=C(C)NC(C)=C(C(=O)OC)C1C,155 to 156 °C
2,CN1CCC(Oc2ccccn2)(c2ccccc2)CC1,95 to 96 °C
3,Cc1cc(CCCCCOc2ccc(C3=NCCO3)cc2)no1,91 to 92 °C
4,CC(C)CC(NC(=O)C(Cc1c[nH]cn1)NC(=O)C(CC(=O)NCCc1ccccc1)Cc1cccc2ccccc12)C(O)CO (mixture of isomers),101 to 107 °C
5,CCCc1nn(-c2ccc(C(F)(F)F)cn2)cc1CO,120 to 121 °C
6,COc1cc(OC)c2c(=O)[nH]c(-c3ccc(OCCO)c(-c4cccc(S(C)=O)c4)n3)nc2c1 (centres undefined),272 to 273 °C
7,COc1ccc(C)cc1-c1ccc(S(=O)(=O)N2c3ccccc3CC2C(=O)NCCOc2ccc(CC(=O)O)cc2)cc1 (centres undefined),85 to 88 °C
8,Cc1nc2sccn2c1C1=NNC(=O)OC1,294 °C
9,C=CCc1cc(C=CNC(=O)OC)ccc1OCC(O)CNC(C)C (centres undefined),128 to 129 °C
10,CN(C)C(=S)SC(C[N+](=O)[O-])c1cc([N+](=O)[O-])ccc1Cl (centres undefined),120 to 121 °C
11,CCOC(=O)CCc1cc(O)nn1Cc1ccccc1,128 to 129 °C
12,CC1CC2C(=CCC3(C)C2CCC3(O)C(=O)CO)C2(C)C=CC(=O)C=C12 (centres undefined),204 to 206 °C
13,CCOc1ccc(F)cc1C(=O)c1sc2ncccc2c1N,130 °C
14,CC(SC1COC(c2ccc(C(=O)Nc3c(F)c(F)c(C#N)c(F)c3F)cc2)OC1)C(O)(Cn1cncn1)c1ccc(F)cc1F (centres undefined),182 °C
15,Cc1cc(-c2nc3cccnn3c2-c2ccnc(NC(=O)c3ccc(Cl)nc3)c2)ccc1F,225 to 226 °C
16,COc1ccc(CNc2nc(OCc3ccccn3)ncc2C(N)=O)cc1Cl,208 to 209 °C
17,CN(C)CCOc1ccc(Nc2nccc(-c3ccncc3)n2)cc1,120 to 122 °C
18,CNC(=O)CC1CN=C(c2cc3cc(Oc4ccc(S(C)(=O)=O)nc4)cc(OC(COC)COC)c3[nH]2)S1 (centres undefined),149 to 151 °C
19,CC1Cc2cccc(-c3ccccc3)c2C1=O (centres undefined),81.5 to 83 °C
20,O=C(NC(=O)C(c1ccccc1)c1ccccc1)OCCN1CCOCC1,135 to 137 °C
21,Cc1c(C)c2c(c(C)c1N)C(c1ccc(C(C)C)cc1)C1(CCN(C)CC1)O2 (centres undefined),123 to 124 °C
22,Cc1nc(N)c2nc(C)n(CC3(O)CCC3)c2c1C,> 250 °C
23,CCc1cc2c([nH]c1=O)c(C)cc1cc(CBr)oc12,237 to 240 °C
24,COc1cc2nc(N3CCN(c4ccc(Cl)ccc4=O)CC3)nc(N)c2cc1OC,202 to 204 °C

# From a melting point compilation (Tetko et al.; mined from patent text by program, amines drawn as free bases though some values may be those of a salt)
